From patent publication US20260091136A1, “USING ENHO GENE THERAPY TO TREAT CARDIOMETABOLIC DISEASE” (University of Pittsburgh-of the Commonwealth System of …, priority 2023, published 2026)
Entries after “also recorded” stand apart in the source; their conditions may differ.

Columns and labels:
[1] = system: diabetic mice; settings: cited from earlier work
[2] = system: GPR19; settings: previous work from our group; cited from earlier work
[3] = system: HFpEF mice; experiment: Liver H&E histology, NAFLD/MAFLD activity score (NAS), cohort 2; format: in vivo, C57BL/6J mice; settings: adropin-treated vs HFpEF mice; non-significant
Text: (§1) Animal Care and Use. Male C57BL/6J 8-week-old mice were obtained from the Jackson Laboratory and maintained on chow for 4 weeks to acclimate to their new environment. Animals were housed in the University of Pittsburgh animal facility under standard conditions with ad libitum access to water and food and maintained on a constant 12-hour light/dark cycle. At 12 weeks of age, the mice were exposed to normal chow (Chow; 60% carbohydrate, 26% protein, 14% fat), or a combination of high-fat diet (HFD; 20% carbohydrate, 20% protein, 60% fat) plus No-nitro-L-arginine methyl ester (L-NAME: 0.5 g/L) supplemented in their drinking water after adjusting the pH to 7.4 with 1N NaOH to induce HFpEF [10]. For cohort 1, the mice were subject to the HFpEF diet for 15 weeks. For cohort 2, after 8 weeks of diet, mice were randomly assigned to a control or treatment group receiving daily intraperitoneal injections of either vehicle or recombinant adropin at 450 nmol/kg animal weight prepared in PBS with 0.1% BSA for the remaining 5 weeks of the study. L-NAME supplemented drinking water was changed weekly and adropin was made fresh and sterile filtered before each use.
Histology. […] Histology sections were visualized with the Evos FL Auto 2 Microscope, observed changes in structure were quantified using ImageJ software and representative images are shown.

[4] = system: hexosamine biosynthesis pathway (HBP); experiment: Metabolomics of hearts, HFpEF vs HFpEF+Adropin; format: in vivo, C57BL/6J mice; settings: heart; for cardiac hexose and pyruvate levels: Adropin-treated HFpEF mice; for hexosamine biosynthesis pathway (metabolites related to UDP-GlcNAc biosynthesis), untargeted BioCyc pathway analysis: vehicle-treated vs adropin-treated HFpEF groups
Text: as §1
Quantitative Metabolomics. Metabolic quenching and polar metabolite pool extraction was performed by adding ice cold 80% methanol (aqueous) at a ratio of 1:15 wt input tissue:vol. (13 C1)-creatinine, (D3)-taurine, (D3)-lactate and (D3)-alanine were added to the sample lysates as an internal standard for a final concentration of […]. Samples are homogenized using an MP Bio FastPrep system using Matrix D (ceramic sphere) for 60 seconds at 60 hz. The supernatant was then cleared of protein by centrifugation at 16,000 g. 2 μL of cleared supernatant was subjected to online LC-MS analysis. Analyses were performed by untargeted liquid chromatography-high-resolution mass spectrometry (LC-HRMS). Briefly, samples were injected via a Thermo Vanquish UHPLC and separated over a reversed phase. Thermo HyperCarb porous graphite column (2.1×100 mm, […]) maintained at 55° C. For the 20 min LC gradient, the mobile phase consisted of the following: solvent A (water/0.1% FA) and solvent B (ACN/0.1% FA). The gradient was the following: 0-1 min 1% B, increase to 15% B over 5 min, continue increasing to 98% B over 5 min, hold at 98% B for five min, re-equillibrate at 1% B for five min. The Thermo IDX tribrid mass spectrometer was operated in both positive and negative ion mode, scanning in ddMS2 mode (2 scans) from 70 to 800 m/z at 120,000 resolution with an AGC target of 2e5 for full scan, 2e4 for ms2 scans using HCD fragmentation at stepped 15, 35, 50 collision energies. Source ionization setting was 3.0 and 2.4 kV spray voltage, respectively, for positive and negative mode. Source gas parameters were 35 sheath gas, 12 auxiliary gas at 320° C., and 8 sweep gas. Calibration was performed prior to analysis using the Pierce™ FlexMix Ion Calibration Solutions. Integrated peak areas were then extracted manually using Quan Browser (Thermo Fisher Xcalibur ver. 2.7). Untargeted differential comparisons were performed using Compound Discoverer 3.0 to generate a ranked list of significant compounds with tentative identifications from BioCyc, KEGG, and internal compound databases. Purified standards were then purchased and compared in retention time, m/z, along with ms2 fragmentation patterns to validate the identity of significant hits.

In the case of “Adropin: recombinant Adropin peptide hormone encoded by the ENHO gene; full-length (SEQ ID NO: 1) or cleaved product of amino acids 34-76 (SEQ ID NO: 2) (CHSRSADVDSLSESSPNSSPGPCPEKAPPPQKPSHEGSYLLQP)”, the vascular stiffness ([1]; diet-induced obesity, previous study [9]) is given as “reduced”, the “hepatocellular injury in NAFLD/MAFLD” value ([1]; exogenous adropin treatment, recent studies [34]) is given as “alleviates” and the physical activity ([1]; previous studies [6-8]) is given as “improved”. The “hepatic steatosis and injury” value ([1]; previous studies [7, 34]) was “attenuated”, the “glucose oxidation in the hearts of diabetic mice” value ([1]; previous work from our group) was “restores” and the “liver glucose production in diabetic mice” value ([1]; previous work from our group) was “decreases”. For the same substance, the “Adropin function in cardiac cells” value [2] was “dependent on GPR19”, the “decrease in liver NAS” value [3] was about 7% and the “cardiac hexose and pyruvate levels” value [4] was “trend towards decreased”. The “cardiac hexose and pyruvate levels” value ([4]; listed as adropin) was “trend towards restored”, the “abundance of metabolites used to generate UDP-GlcNAc (GlcNAc-6-P, uridine, coenzyme A)” value ([4]; relative to HFpEF mice) was “significant increase” and the “hexosamine biosynthesis pathway (metabolites related to UDP-GlcNAc biosynthesis), untargeted BioCyc pathway analysis” value [4] was “major metabolomic differences; also recorded: modulated”. The “hexosamine biosynthesis pathway (metabolites related to UDP-GlcNAc biosynthesis), untargeted BioCyc pathway analysis” value ([4]; listed as adropin) was “major metabolomic difference; also recorded: inhibits”.
